Assay results reported in patent US20050137220A1 (Pharmacia Corporation, priority 2003, published 2005).
pIC50: −log10 of the molar value. Where a name gives a salt, the structure may show the parent alone. Read-outs that look alike come from different tables or passages of the source. Values belong to the molecule of their own block, whether it stands above or below them.

Assays:
[1] = test system: U937 cells; experiment: U937 Cell TNFα Release Assay; assay type: cell-based, human; conditions: mixture of stereoisomers implied unless otherwise noted
[2] = target: MK-2 (Homo sapiens, UniProt P49137); experiment: Determination of MK-2 IC50 (phosphorylation of HSP-peptide, anion exchange resin capture assay); assay type: biochemical; conditions: additional values are replicate IC50 experiments; mixture of stereoisomers implied unless otherwise noted; read-out: MK-2 Avg. IC50
[3] = Homo sapiens, U-937, 4 h, LPS-stimulated differentiated U937 cells, TNFα by ELISA, read-out: TNF Release Assay Avg. IC50
[4] = Homo sapiens, U-937, read-out: TNF Release Assay Avg. IC50, LPS-stimulated differentiated U937 cells, TNFα by ELISA
[5] = Homo sapiens, U-937, 4 h, read-out: TNF Release Assay Avg. IC50, LPS-stimulated differentiated U937 cells, TNFα by ELISA
[6] = read-out: TNF Release Assay Avg. IC50, LPS-stimulated differentiated U937 cells, TNFα by ELISA, trifluoroacetate
[7] = read-out: TNF Release Assay Avg. IC50, LPS-stimulated differentiated U937 cells, TNFα by ELISA, hydrochloride
[8] = Homo sapiens, U-937, LPS-stimulated differentiated U937 cells, TNFα by ELISA, read-out: TNF Release Assay Avg. IC50

Chain of MK-2 (P49137 whole entry, species assumed): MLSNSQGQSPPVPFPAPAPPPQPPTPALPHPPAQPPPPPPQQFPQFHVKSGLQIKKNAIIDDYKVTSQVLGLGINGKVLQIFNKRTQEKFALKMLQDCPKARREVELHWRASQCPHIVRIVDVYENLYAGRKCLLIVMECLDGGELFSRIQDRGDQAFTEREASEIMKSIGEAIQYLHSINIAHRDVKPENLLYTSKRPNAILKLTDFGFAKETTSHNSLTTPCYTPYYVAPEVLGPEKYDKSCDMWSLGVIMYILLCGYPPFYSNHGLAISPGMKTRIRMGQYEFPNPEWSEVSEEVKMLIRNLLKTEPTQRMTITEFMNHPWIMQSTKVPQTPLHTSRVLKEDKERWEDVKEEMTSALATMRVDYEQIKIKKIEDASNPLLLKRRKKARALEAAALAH

pIC50 [1, 3]: 4.37
Structure (SMILES): O=C(O)C1c2[nH]c3ccc(O)cc3c2C2CCN1C2 (stereo not drawn) [Example 2, 7-hydroxy-3,4,5,10-tetrahydro-1H-2,5-methanoazepino[3,4-b]indole-1-carboxylic acid hydrochloride]

Structure (SMILES): COc1ccc2[nH]c3c(c2c1)C1CCN(C1)C3C(=O)OCC(O)CO (stereo not drawn) [Example 20, 2,3-dihydroxypropyl 7-methoxy-3,4,5,10-tetrahydro-1H-2,5-methanoazepino[3,4-b]indole-1-carboxylate hydrochloride]
pIC50 [1, 4]: < 4.00

Structure (SMILES): CCC1CNC(C(=O)O)c2[nH]c3ccc(OC)cc3c21 (stereo not drawn) [Example 21, 4-ethyl-6-methoxy-2,3,4,9-tetrahydro-1H-beta-carboline-1-carboxylic acid hydrochloride]
pIC50 [1, 5]: < 4.00

Structure (SMILES): COc1ccc2[nH]c3c(c2c1)C(C)CNC3C(=O)O (stereo not drawn) [Example 22, 6-methoxy-4-methyl-2,3,4,9-tetrahydro-1H-beta-carboline-1-carboxylic acid]
pIC50 [1, 5]: 4.04

Structure (SMILES): COc1ccc2[nH]c3c(c2c1)CC(CO)NC3C(=O)O (stereo not drawn) [Example 24, 3-(hydroxymethyl)-6-methoxy-2,3,4,9-tetrahydro-1H-beta-carboline-1-carboxylic acid]
pIC50 [1, 5]: < 4.00

Structure (SMILES): COc1ccc2[nH]c3c(c2c1)C1CCN(C1)C3C(=O)OCCF (stereo not drawn) [Example 26, trifluoroacetate]
pIC50 [1, 4]: 5.69

Structure (SMILES): C=CCOC(=O)C1c2[nH]c3ccc(OC)cc3c2C2CCN1C2 (stereo not drawn) [Example 28, allyl 7-methoxy-3,4,5,10-tetrahydro-1H-2,5-methanoazepino[3,4-b]indole-1-carboxylate hydrochloride]
pIC50 [1, 4]: 4.84

Structure (SMILES): COc1ccc2[nH]c3c(c2c1)C1CCN(C1)C3C(=O)OCc1ccccc1 (stereo not drawn) [Example 31, benzyl 7-methoxy-3,4,5,10-tetrahydro-1H-2,5-methanoazepino[3,4-b]indole-1-carboxylate trifluoroacetate]
pIC50 [1, 6]: 4.34

Structure (SMILES): COc1ccc2[nH]c3c(c2c1)C1CCN(C1)C3C(=O)OCCSC (stereo not drawn) [Example 32, hydrochloride]
pIC50 [1, 4]: 4.52

Structure (SMILES): O=C(O)C1NCCc2c1[nH]c1ccc(O)cc21 (stereo not drawn) [Example 33, 6-hydroxy-2,3,4,9-tetrahydro-1H-beta-carboline-1-carboxylic acid hydrochloride]
pIC50 [1, 5]: < 4.00

Structure (SMILES): COCCOC(=O)C1c2[nH]c3ccc(OC)cc3c2C2CCN1C2 (stereo not drawn) [Example 35, hydrochloride]
pIC50 [1, 7]: 4.03

pIC50 [1, 8]: < 4.00
Structure (SMILES): COc1ccc2[nH]c3c(c2c1)CC(CO)NC3=O (stereo not drawn) [Example 37, 3-(hydroxymethyl)-6-methoxy-2,3,4,9-tetrahydro-1H-beta-carbolin-1-one]

Structure (SMILES): COC(=O)C1c2[nH]c3ccc(O)cc3c2C2CCN1C2 (stereo not drawn) [Example 40, methyl 7-hydroxy-3,4,5,10-tetrahydro-1H-2,5-methanoazepino[3,4-b]indole-1-carboxylate hydrochloride]
pIC50 [1, 4]: 4.59

pIC50 [1, 3]: 4.82
Structure (SMILES): CSc1ccc2[nH]c3c(c2c1)C1CCN(C1)C3C(=O)O (stereo not drawn) [Example 50]

pIC50 [1, 8]: 4.79
Structure (SMILES): COC(=O)C1c2[nH]c3ccc(OC)cc3c2C2CCN1C2 (stereo not drawn) [Example 58, methyl 7-methoxy-3,4,5,10-tetrahydro-1H-2,5-methanoazepino[3,4-b]indole-1-carboxylate trifluoroacetate]

Structure (SMILES): COc1ccc2[nH]c3c(c2c1)C1CCN(C1)C3C(=O)OC(C)C (stereo not drawn) [Example 59, isopropyl 7-methoxy-3,4,5,10-tetrahydro-1H-2,5-methanoazepino[3,4-b]indole-1-carboxylate hydrochloride]
pIC50 [1, 4]: < 4.00

Structure (SMILES): CCCOC(=O)C1c2[nH]c3ccc(OC)cc3c2C2CCN1C2 (stereo not drawn) [Example 61, propyl 7-methoxy-3,4,5,10-tetrahydro-1H-2,5-methanoazepino[3,4-b]indole-1-carboxylate trifluoroacetate]
pIC50 [1, 6]: 6.06

Structure (SMILES): O=C(OCc1ccccc1)C1c2[nH]c3ccc(O)cc3c2C2CCN1C2 (stereo not drawn) [Example 63, benzyl 7-hydroxy-3,4,5,10-tetrahydro-1H-2,5-methanoazepino[3,4-b]indole-1-carboxylate hydrochloride]
pIC50 [1, 8]: 4.44

Structure (SMILES): O=C(O)C1NCCc2c1[nH]c1ccc(OCc3ccccc3)cc21 (stereo not drawn) [Example 64, 6-(benzyloxy)-2,3,4,9-tetrahydro-1H-beta-carboline-1-carboxylic acid hydrochloride]
pIC50 [1, 5]: 4.07

Structure (SMILES): COc1ccc2[nH]c3c(c2c1)CCN[C@@H]3C(=O)O [Example 67, (1S)-6-methoxy-2,3,4,9-tetrahydro-1H-beta-carboline-1-carboxylic acid]
pIC50 [1, 5]: < 4.00

Structure (SMILES): COc1ccc2[nH]c3c(c2c1)C(Cc1ccccc1)CNC3C(=O)O (stereo not drawn) [Example 71, 4-benzyl-6-methoxy-2,3,4,9-tetrahydro-1H-beta-carboline-1-carboxylic acid]
pIC50 [1, 5]: 4.27

Structure (SMILES): COc1ccc2[nH]c3c(c2c1)C1CCN(C1)C3C(=O)OCC(C)(C)C (stereo not drawn) [Example 84, hydrochloride]
pIC50 [1, 4]: 4.39

Structure (SMILES): NC(=O)c1ccc2[nH]c3c(c2c1)CCNC3C(=O)O (stereo not drawn) [Example 88, 6-(aminocarbonyl)-2,3,4,9-tetrahydro-1H-beta-carboline-1-carboxylic acid trifluoroacetate hydrate]
pIC50 [1, 5]: < 4.00

Structure (SMILES): CCCOC(=O)C1c2[nH]c3ccc(OC)cc3c2C2CCN1C2 (stereo not drawn) [Example 90, propyl 7-methoxy-3,4,5,10-tetrahydro-1H-2,5-methanoazepino[3,4-b]indole-1-carboxylate hydrochloride]
pIC50 [1, 7]: 4.32

Structure (SMILES): COC(=O)C1c2[nH]c3ccc(OCc4ccccc4)cc3c2C2CCN1C2 (stereo not drawn) [Example 91, methyl 7-(benzyloxy)-3,4,5,10-tetrahydro-1H-2,5-methanoazepino[3,4-b]indole-1-carboxylate compound with trifluoroacetic acid (1:1)]
pIC50 [1, 4]: 4.62

Structure (SMILES): CCOC(=O)C1c2[nH]c3ccc(OC)cc3c2C2CCN1C2 (stereo not drawn) [Example 92, ethyl 7-methoxy-3,4,5,10-tetrahydro-1H-2,5-methanoazepino[3,4-b]indole-1-carboxylate trifluoroacetate]
pIC50 [1, 4]: 5.25

Structure (SMILES): CCCCCCOC(=O)C1c2[nH]c3ccc(OC)cc3c2C2CCN1C2 (stereo not drawn) [Example 93, hydrochloride]
pIC50 [1, 4]: 5.02

Structure (SMILES): O=C(O)C1NCCc2c1[nH]c1ccc(F)cc21 (stereo not drawn) [Example 94, 6-fluoro-2,3,4,9-tetrahydro-1H-beta-carboline-1-carboxylic acid trifluoroacetate]
pIC50 [1, 5]: < 4.00

Structure (SMILES): COc1ccc2[nH]c3c(c2c1)C1CCN(C1)C3C(=O)OCC1CCCCC1 (stereo not drawn) [Example 99, cyclohexylmethyl 7-methoxy-3,4,5,10-tetrahydro-1H-2,5-methanoazepino[3,4-b]indinole-1-carboxylate hydrochloride]
pIC50 [1, 4]: 5.01

Structure (SMILES): COc1cccc2[nH]c3c(c12)CCNC3C(=O)O (stereo not drawn) [Example 103, 5-methoxy-2,3,4,9-tetrahydro-1H-beta-carboline-1-carboxylic acid hydrochloride]
pIC50 [1, 5]: 4.03

Structure (SMILES): COc1ccc2[nH]c3c(c2c1)C1CCN(C1)C3C(=O)OC1CCCCC1 (stereo not drawn) [Example 105, hydrochloride]
pIC50 [1, 4]: < 4.00

Structure (SMILES): COC(=O)C1NCCc2c1[nH]c1ccc(OC)cc21 (stereo not drawn) [Example 106, methyl 6-methoxy-2,3,4,9-tetrahydro-1H-beta-carboline-1-carboxylate hydrochloride]
pIC50 [1, 5]: 4.58

Structure (SMILES): COC(=O)C1c2[nH]c3ccc(OC)cc3c2CCN1C (stereo not drawn) [Example 149, methyl 6-methoxy-2-methyl-2,3,4,9-tetrahydro-1H-beta-carboline-1-carboxylate]
pIC50 [1, 5]: 5.08

Structure (SMILES): COC(=O)C1c2[nH]c3ccc(O)cc3c2CCN1C (stereo not drawn) [Example 150, methyl 6-hydroxy-2-methyl-2,3,4,9-tetrahydro-1H-beta-carboline-1-carboxylate]
pIC50 ([1]; read-out: TNF Release Assay Avg. IC50, LPS-stimulated differentiated U937 cells, TNFα by ELISA): 6.28

Structure (SMILES): COc1ccc2[nH]c3c(c2c1)C1CCN(C1)C3C(=O)OC1C(C)(C)CCCC1(C)C (stereo not drawn) [Example 152, 2,2,6,6-tetramethylcyclohexyl 7-methoxy-3,4,5,10-tetrahydro-1H-2,5-methanoazepino[3,4-b]indole-1-carboxylate trifluoroacetate]
pIC50 [1, 4]: 4.66

pIC50 [2]: < 3.70
Structure (SMILES): CN1C(=O)C(=O)c2c(n(C)c3ccccc23)C1=O [Example 263, 1H-Pyrido[3,4-b]indole-1,3,4(2H,9H)-trione, 2,9-dimethyl- or 2,9-dimethyl-1H-beta-carboline-1,3,4(2H,9H)-trione]

pIC50 [2]: < 3.70
Structure (SMILES): COc1ccc2c3c([nH]c2c1)C(=O)NCC3 [Example 264, 7-methoxy-2,3,4,9-tetrahydro-1H-beta-carbolin-1-one]

pIC50 [2]: < 3.70
Structure (SMILES): CC(C)(C)OC(=O)N1CCN(C(=O)c2cccc3[nH]c4c(c23)CCNC4=O)CC1 [Example 267, tert-butyl 4-[(1-oxo-2,3,4,9-tetrahydro-1H-beta-carbolin-5-yl)carbonyl]piperazine-1-carboxylate]

pIC50 [2]: < 3.70
Structure (SMILES): O=C1NCCc2c1[nH]c1cccc(C(=O)N3CCNCC3)c21 [Example 268, 5-(piperazin-1-ylcarbonyl)-2,3,4,9-tetrahydro-1H-beta-carbolin-1-one hydrochloride]

pIC50 [2]: < 3.70
Structure (SMILES): COC1=C(C#N)Cc2c([nH]c3ccc(OC)cc23)C(=O)N1 [Example 269, 3,7-dimethoxy-1-oxo-1,2,5,10-tetrahydroazepino[3,4-b]indole-4-carbonitrile]

pIC50 [2]: < 3.70
Structure (SMILES): COC(=O)c1ccc2[nH]c3c(c2c1)CCNC3=O [Example 270, methyl 1-oxo-2,3,4,9-tetrahydro-1H-beta-carboline-6-carboxylate]

pIC50 [2]: < 3.70
Structure (SMILES): O=C(O)c1ccc2[nH]c3c(c2c1)CCNC3=O [Example 271, 1-oxo-2,3,4,9-tetrahydro-1H-beta-carboline-6-carboxylic acid]
